Measured values reported in patent US20100069393A1, “METHOD OF TREATMENT AND AGENTS USEFUL FOR SAME” (PRANA BIOTECHNOLOGY LIMITED, priority 2006, published 2010).

Key:
[1] = Cytotoxicity: viability of M17 cells; settings: human, M17 neuroblastoma cells, Cytotoxicity (% viable at 1 and 10 uM); for viability at 1 uM: test compound 1 uM; for viability at 10 uM: test compound 10 uM
[2] = Neurotoxicity assay: MTS viability of primary cortical neuronal cultures; format: cell-based, mouse; settings: BL6Jx129sv, mouse, primary cortical neuronal cultures, Neuronal cells, read-out: Cytotoxicity (% viable at 1 and 10 uM); for viability at 4 days, 1 uM: test compound 1 uM; for viability at 4 days, 10 uM: test compound 10 uM
[3] = In vivo toxicity, visual observations; settings: 30 mg/kg, number of days
[4] = Mice plasma concentration; format: in vivo; settings: for Mice plasma concentration: presence in plasma at one or two time points (between 30 min and 4 h); for Mice plasma concentration (single dose): one or two time points (between 30 min and 4 h)
[5] = Blood brain barrier penetration (brain:plasma ratio after IV dose); format: in vivo; settings: nominal dose 5 mg/kg, male Swiss Outbred mice
Description: A bolus injection of each of the test compound (50 μL of a 3 mg/mL aqueous solution containing 40% propylene glycol and 10% ethanol) was administered by tail vein injection to male Swiss Outbred mice (5-7 weeks of age).
At 5 and 60 min post-dose (n=3 mice at each time point), blood was collected by cardiac puncture and the whole brain was removed by making an incision through the back of the skull. Mice were anaesthetised approximately 3-4 min prior to blood and brain harvest with an intraperitoneal injection of ketamine and xylazine (133 mg/kg and 10 mg/kg, respectively).
The whole brain was placed into preweighed polypropylene vials and stored at −20° C. until analysis. On the day of analysis, the whole brain was homogenised in 3 parts of water (on ice to reduce the potential for ex vivo brain degradation) and an aliquot of the brain homogenate and plasma was analysed for compound concentration by LCMS. Standards were prepared by spiking blank brain homogenate and both samples and standards were processed by adding acetonitrile to the tissue homogenate, centrifuging and injecting an aliquot of the supernatant onto the LCMS.
To ensure complete recovery of compound from the brain, brain homogenate was spiked with compound (in 50% acetonitrile:50% water) to a nominal concentration of 500 ng/mL. The concentration of compound in the supernatant was then determined by LCMS and compared to the supernatant concentration when compound was added following precipitation with acetonitrile.

| Mice plasma concentration [4] | B:P Ratio ([5]; 5 min post dose) | B:P Ratio ([5]; 60 min post dose) | Mice plasma concentration (single dose) [4] | Compound | viability at 1 uM [1] | viability at 10 uM [1] | viability at 4 days, 1 uM [2] | viability at 4 days, 10 uM [2] | Toxicity at 30 mg/kg [3] |
| --- | --- | --- | --- | --- | --- | --- | --- | --- | --- |
| Up to 5000 ng/mL | 0.26 | 0.24 |  | O=c1c2c(Cl)cc(Cl)c(O)c2ncn1C1CC1 | 105% | 72% | 91% | 77% | 10 days, none |
| Up to 112.4 ng/mL |  |  |  | Cn1c(-n2cnc3c(O)c(Cl)cc(Cl)c3c2=O)nc2ccccc21 | 107% | 94.9% | 105% | 97% | 10 days, none |
| Up to 2641 ng/mL |  |  |  | Br.CCCn1cnc2c(O)c(Cl)cc(Cl)c2c1=O | 107% | 98.8% | 102% | 83% | 10 days, none |
| Up to 1,130.6 ng/mL |  |  |  | O=c1c2c(Cl)cc(Cl)c(O)c2ncn1Nc1ccc(F)cc1F | 105% | 83.1% | 100% | 92% | 10 days, none |
| Up to 1802 ng/mL |  |  |  | CC(C)Cn1cnc2c(O)c(Cl)cc(Cl)c2c1=O | 102% | 75.6% | 99% | 70% | 10 days, none |
| Up to 2508 ng/mL | 0.07 | 0.06 |  | O=c1c2ccc(I)c(O)c2ncn1CC1CC1 | 111% | 65.1% |  |  | 10 days, none |
| Up to 11742 ng/ml ng/mL | 0.02 | 0.03 |  | CCCc1cnc2c(O)c(I)ccn2c1=O | 80.8% | 47.6% |  |  | 10 days, none |
| Up to 382.5 ng/mL |  |  |  | Br.CN1CCCC1Cn1cnc2c(O)c(Cl)cc(Cl)c2c1=O (stereo not shown) | 107% | 93.9% |  |  | 10 days, none |
| Up to 441.4 ng/mL |  |  |  | O=c1c2c(Cl)cc(Cl)c(O)c2ncn1Cc1nccs1 | 96% | 99.8% |  |  | 10 days, none |
| Up to 2796 ng/mL |  |  |  | O=c1c2c(Cl)cc(Cl)c(O)c2ncn1Cc1nc2ccccc2[nH]1 | 102% | 100% |  |  | 10 days, none |
| Up to 7107 ng/mL |  |  |  | Cc1noc(C)c1-n1cnc2c(O)c(Cl)cc(Cl)c2c1=O | 106% | 94.2% |  |  | 10 days, none |
| Up to 1639.8 ng/mL |  |  |  | O=c1c2c(Cl)cc(Cl)c(O)c2ncn1CCNCc1ccncc1 | 103% | 105% |  |  | 10 days, none |
| Up to 975.9 ng/mL |  |  |  | CCn1c(CN(C)C)nc2c(O)c(Cl)cc(Cl)c2c1=O.Cl | 99.2% | 102% |  |  | 10 days, none |
| Up to 492.1 ng/mL |  |  |  | Br.CN(C)Cc1nc2c(O)c(Cl)cc(Cl)c2c(=O)n1C | 104% | 111% |  |  | 10 days, 1 of 4 mild signs |
| Up to 383 ng/mL |  |  |  | Br.CCC(C)n1cnc2c(O)c(Cl)cc(Cl)c2c1=O (stereo not shown) [drawing 185] | 94.3% | 74.5% | 104% | 71% | 10 days, none |

The remaining lines, values behind:

| Compound | Mice plasma concentration [4] | B:P Ratio ([5]; 5 min post dose) | B:P Ratio ([5]; 60 min post dose) | Mice plasma concentration (single dose) [4] | viability at 1 uM [1] | viability at 10 uM [1] | viability at 4 days, 1 uM [2] | viability at 4 days, 10 uM [2] | Toxicity at 30 mg/kg [3] |
| --- | --- | --- | --- | --- | --- | --- | --- | --- | --- |
| Cn1cnc(CCNC(=O)c2ccc3c(Cl)cc(Cl)c(O)c3n2)c1 | Up to 11605 ng/mL | 0.06 | 0.20 |  | 108% | 82.6% | 93% | 88% | 10 days, none |
| CCNCc1ccc2c(Cl)cc(Cl)c(O)c2n1.Cl | Up to 403 ng/mL |  |  |  | 78.3% | 44% | 87% | 56% | 10 days, none |
| O=c1c2c(Cl)cc(Cl)c(O)c2ncn1CCN1CCCC1 |  |  |  | Up to 520 ng/mL (single dose) | 104% | 101% | 104% | 91% | 14 days, 1 of 4 death |
| O=c1c2c(Cl)cc(Cl)c(O)c2ncn1CC1CC1 | Up to 2698 ng/mL | 0.12 | 0.07 |  | 96.2% | 76.8% | 116% | 105% | 11 days, none |
| O=c1c2c(Cl)cc(Cl)c(O)c2ncn1N1CCOCC1 | Up to 45.2 ng/mL |  |  |  | 95.9% | 80.9% | 105% | 70% | 10 days, none |
| OCCN1C=Nc2c(O)c(Cl)cc(Cl)c2C1 | Up to 8134.8 ng/mL |  |  |  | 115% | 119% | 107% | 96% | 10 days, none |
| Br.CCN(CC)CCn1cnc2c(O)c(Cl)cc(Cl)c2c1=O |  |  |  | Up to 113.2 ng/mL (single dose) | 100% | 70.3% | 107% | 77% | 10 days, none |
| O=C(O)CCCn1cnc2c(O)c(Cl)cc(Cl)c2c1=O | Up to 17008 ng/mL |  |  |  | 110% | 103% |  |  | 10 days, none |
| O=c1c2c(Cl)cc(Cl)c(O)c2ncn1Cc1nc2ccccc2s1 | Up to 166.1 ng/mL |  |  |  | 111% | 80.9% |  |  | 10 days, none |
| CN(C)Cc1nc2c(O)c(Cl)cc(Cl)c2c(=O)n1CC1CC1.Cl | Up to 1166.6 ng/mL |  |  |  | 94.4% | 74.5% |  |  | 10 days, none |
| O=c1c2c(Cl)cc(Cl)c(O)c2ncn1-c1ccccn1 [drawing 171] |  |  |  | Up to 142.9 ng/mL (single dose) | 101% | 80.5% | 95% | 81% | 10 days, none |
